What was measured:
[1] = target: T1, Recombinant human HDAC6 (Homo sapiens, UniProt Q9UBN7); assay: Biochemical HDAC assay with acetylated AMC-labeled peptide substrate, HDAC6; conditions: HDAC6, 2 hours at 30° C.; read-out: IC50 (nM) HDAC 6
T1 construct: full length, MW=180 kDa, was expressed by baculovirus in Sf9 insect cells; GST (N); made in house; host or cells: Sf9 insect cells (baculovirus)
T1 sequence (Q9UBN7 1-1215): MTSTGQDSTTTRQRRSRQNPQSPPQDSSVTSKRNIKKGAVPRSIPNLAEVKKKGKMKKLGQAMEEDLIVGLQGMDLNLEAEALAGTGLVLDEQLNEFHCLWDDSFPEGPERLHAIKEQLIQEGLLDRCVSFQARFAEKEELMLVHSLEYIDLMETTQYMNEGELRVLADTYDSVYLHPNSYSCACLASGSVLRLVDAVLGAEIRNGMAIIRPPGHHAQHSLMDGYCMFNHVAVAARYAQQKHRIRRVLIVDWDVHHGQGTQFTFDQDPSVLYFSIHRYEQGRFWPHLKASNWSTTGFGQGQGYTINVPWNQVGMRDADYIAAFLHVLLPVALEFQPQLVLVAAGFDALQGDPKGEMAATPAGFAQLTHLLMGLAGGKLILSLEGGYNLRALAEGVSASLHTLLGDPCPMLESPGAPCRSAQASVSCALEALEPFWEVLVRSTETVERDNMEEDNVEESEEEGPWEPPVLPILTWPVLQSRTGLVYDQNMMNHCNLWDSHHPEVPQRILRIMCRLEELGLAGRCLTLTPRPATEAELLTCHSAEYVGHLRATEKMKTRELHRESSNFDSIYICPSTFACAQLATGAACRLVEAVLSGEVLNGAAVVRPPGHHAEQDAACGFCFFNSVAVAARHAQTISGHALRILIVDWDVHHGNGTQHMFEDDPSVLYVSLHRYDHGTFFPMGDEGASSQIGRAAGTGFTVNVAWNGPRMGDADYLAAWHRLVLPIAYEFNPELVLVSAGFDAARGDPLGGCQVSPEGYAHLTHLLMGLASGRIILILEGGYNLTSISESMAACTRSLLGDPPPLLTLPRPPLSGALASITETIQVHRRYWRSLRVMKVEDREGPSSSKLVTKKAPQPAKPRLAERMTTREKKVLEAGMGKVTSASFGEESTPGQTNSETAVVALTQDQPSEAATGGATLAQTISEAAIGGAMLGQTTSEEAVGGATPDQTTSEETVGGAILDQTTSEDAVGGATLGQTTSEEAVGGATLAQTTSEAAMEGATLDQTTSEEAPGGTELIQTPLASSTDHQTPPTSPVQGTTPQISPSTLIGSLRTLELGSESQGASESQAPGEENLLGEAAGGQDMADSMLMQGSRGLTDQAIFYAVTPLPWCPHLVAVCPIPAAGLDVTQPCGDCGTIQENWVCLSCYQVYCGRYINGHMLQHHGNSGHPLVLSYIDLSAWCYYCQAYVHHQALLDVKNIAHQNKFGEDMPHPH
Method: (§1) Activity against all zinc-dependent HDACs 1 to 11 was assessed by using an acetylated AMC-labeled peptide substrate. The substrate RHKKAc was used for all class I and IIb HDACs; for […], the substrate used was RHKAcKAc. […] All assays were based on the AMC-labeled substrate and developer combination.
(§2) The protocol involved a two-step reaction: first, the substrate with the acetylated lysine side chain is incubated with a sample containing HDAC activity, to produce the deacetylated products, which are then digested in the second step by the addition of developer to produce the fluorescent signal proportional to the amount of deacetylated substrates.
Recombinant human HDAC6 (GenBank Accession No. BC069243), full length, MW=180 kDa, was expressed by baculovirus in Sf9 insect cells using an N-terminal GST tag.
(§3) Before use, 1 mg/mL BSA and DMSO are added.
(§4) Incubate for 2 hours at 30° C.
(§5) Stage 1: Deacetylation of substrate by incubation of HDAC enzymes with compounds
(§6) Stage 2: Development by addition of Developer to digest the deacetylated substrate, and generate the fluorescent color; Detection: 360/460 Ex/Em

[2] = target: T2, Human HDAC1 (Homo sapiens, UniProt Q13547); assay: Biochemical HDAC assay with acetylated AMC-labeled peptide substrate, HDAC1; conditions: HDAC1, 2 hours at 30° C.; read-out: IC50 (nM) HDAC 1
T2 construct: full length with C-terminal His-tag and C-terminal FLAG-tag; His-tag (C); FLAG-tag (C); made in house; host or cells: baculovirus expression system (insect cells)
Method: as §1, §2
Human HDAC1 (GenBank Accession No. NM_004964), full length with C-terminal His-tag and C-terminal FLAG-tag, MW=56 kDa, expressed in baculovirus expression system.
as §3, §4, §5, §6

T2 sequence (Q13547 whole entry): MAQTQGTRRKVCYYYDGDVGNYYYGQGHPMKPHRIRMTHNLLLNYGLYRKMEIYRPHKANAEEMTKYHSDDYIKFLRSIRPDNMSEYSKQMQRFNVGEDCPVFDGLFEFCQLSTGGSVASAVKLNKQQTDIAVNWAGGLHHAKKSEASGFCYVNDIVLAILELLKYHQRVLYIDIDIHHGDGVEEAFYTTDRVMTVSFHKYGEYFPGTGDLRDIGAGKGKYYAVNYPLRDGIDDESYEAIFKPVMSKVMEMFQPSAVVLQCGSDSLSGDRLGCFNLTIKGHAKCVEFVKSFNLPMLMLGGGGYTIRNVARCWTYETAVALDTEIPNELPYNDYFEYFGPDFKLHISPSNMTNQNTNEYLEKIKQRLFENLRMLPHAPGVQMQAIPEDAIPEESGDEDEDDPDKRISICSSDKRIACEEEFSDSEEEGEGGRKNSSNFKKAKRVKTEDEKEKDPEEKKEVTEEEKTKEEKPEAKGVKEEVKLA

| Structure (SMILES) | IC50 [1] | IC50 [2] |
| --- | --- | --- |
| O=C(NO)c1ccc(CN(c2ccccn2)c2nncs2)cc1 [Example F, N-Hydroxy-4-((pyridin-2-yl(1,3,4-thiadiazol-2-yl)amino)methyl)benzamide] | ≤ 500 nM | > 10000 nM |
| Cc1noc(N(Cc2ccc(C(=O)NO)c(F)c2)c2nc(C)ns2)n1 [Example C, 2-Fluoro-N-hydroxy-4-{[(3-methyl-1,2,4-oxadiazol-5-yl)(3-methyl-1,2,4-thiadiazol-5-yl)amino]methyl}benzamide] | ≤ 500 nM | 1000 to 10000 nM |
| Cc1noc(N(Cc2ccc(C(=O)NO)cc2)c2ccccn2)n1 [Example D, N-Hydroxy-4-(((3-methyl-1,2,4-oxadiazol-5-yl)(pyridin-2-yl)amino)methyl)benzamide] | ≤ 500 nM | 1000 to 10000 nM |
| O=C(NO)c1ccc(CN(c2ccccn2)c2cnccn2)cc1 [Example G, N-Hydroxy-4-((pyrazin-2-yl(pyridin-2-yl)amino)methyl)benzamide] | ≤ 500 nM | > 10000 nM |

Now from value to molecule:

| IC50 [1] | IC50 [2] | Structure (SMILES) |
| --- | --- | --- |
| ≤ 500 nM | 1000 to 10000 nM | Cn1ccc(N(Cc2ccc(C(=O)NO)cc2)c2ccccn2)n1 [Example E, N-Hydroxy-4-(((1-methyl-1H-pyrazol-3-yl)(pyridin-2-yl)amino)methyl)benzamide] |
| ≤ 500 nM | > 10000 nM | Cc1nsc(N(Cc2ccc(C(=O)NO)c(F)c2)c2nc(C)ns2)n1 [Example B, 4-{[Bis(3-methyl-1,2,4-thiadiazol-5-yl)amino]methyl}-2-fluoro-N-hydroxybenzamide] |
| ≤ 500 nM | > 10000 nM | O=C(NO)c1ccc(CN(c2ccccn2)c2ccccn2)cc1 [Example A, 4-{[Bis(pyridin-2-yl)amino]methyl}-N-hydroxybenzamide] |
